Source: ChEMBL document CHEMBL3580572, “Synthesis of mixed opioid affinity cyclic endomorphin-2 analogues with fluorinated phenylalanines” (ACS Med Chem Lett, 2015)
The source made the active and inactive calls. The rule behind the calls is not given here. Where a SMILES comes first, the peptide text is derived from it. Bridges are numbered along the chain shown (N, C = ends). [ ]: non-standard residue; d: D form. Phe(4-CF3) = N[C@@H](Cc1ccc(C(F)(F)F)cc1)C(=O)O; Dmt = Cc1cc(O)cc(C)c1C[C@H](N)C(=O)O

How the values were obtained:
Mu-type opioid receptor [1] = molecular target: Mu-type opioid receptor (Rattus norvegicus, UniProt P33535); assay: Displacement of [3H]DAMGO from mu opioid receptor in Wistar rat brain membranes after 120 mins by scintillation counting analysis; format: cell membranes, Membrane
Sequence of Mu-type opioid receptor (Rattus norvegicus, UniProt P33535) (P33535 whole entry): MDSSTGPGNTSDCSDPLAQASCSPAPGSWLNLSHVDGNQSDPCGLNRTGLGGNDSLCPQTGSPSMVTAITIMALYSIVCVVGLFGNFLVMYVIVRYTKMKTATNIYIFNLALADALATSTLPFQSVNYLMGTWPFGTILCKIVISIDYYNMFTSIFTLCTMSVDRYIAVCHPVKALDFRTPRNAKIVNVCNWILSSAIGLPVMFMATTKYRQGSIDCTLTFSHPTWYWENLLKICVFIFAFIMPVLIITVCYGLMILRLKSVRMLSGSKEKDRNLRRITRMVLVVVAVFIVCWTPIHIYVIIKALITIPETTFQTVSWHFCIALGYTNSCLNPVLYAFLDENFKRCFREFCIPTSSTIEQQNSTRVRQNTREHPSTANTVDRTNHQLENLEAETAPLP

[2] = molecular target: Delta-type opioid receptor (Rattus norvegicus, UniProt P33533); assay: Displacement of [3H][Ile5,6]deltorphin-2 from delta opioid receptor in Wistar rat brain membranes after 120 mins by scintillation counting analysis; format: cell membranes, Membrane
Sequence of Delta-type opioid receptor (Rattus norvegicus, UniProt P33533) (P33533 whole entry): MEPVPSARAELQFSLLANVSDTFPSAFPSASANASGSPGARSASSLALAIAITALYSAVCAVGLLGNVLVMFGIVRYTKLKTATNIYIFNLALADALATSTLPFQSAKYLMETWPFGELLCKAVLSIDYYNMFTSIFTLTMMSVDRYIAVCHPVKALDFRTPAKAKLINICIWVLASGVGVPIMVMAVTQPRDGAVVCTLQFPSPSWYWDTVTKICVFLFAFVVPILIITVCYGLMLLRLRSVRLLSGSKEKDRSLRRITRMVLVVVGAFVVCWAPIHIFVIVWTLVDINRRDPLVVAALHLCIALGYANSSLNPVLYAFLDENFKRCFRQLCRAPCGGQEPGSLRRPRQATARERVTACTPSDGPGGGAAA

[3] = molecular target: Kappa-type opioid receptor (Cavia porcellus, UniProt P41144); assay: Displacement of [3H]nor-BNI from kappa opioid receptor in guinea pig brain membranes after 120 mins by scintillation counting analysis; format: cell membranes, Membrane
Sequence of Kappa-type opioid receptor (Cavia porcellus, UniProt P41144) (P41144 whole entry): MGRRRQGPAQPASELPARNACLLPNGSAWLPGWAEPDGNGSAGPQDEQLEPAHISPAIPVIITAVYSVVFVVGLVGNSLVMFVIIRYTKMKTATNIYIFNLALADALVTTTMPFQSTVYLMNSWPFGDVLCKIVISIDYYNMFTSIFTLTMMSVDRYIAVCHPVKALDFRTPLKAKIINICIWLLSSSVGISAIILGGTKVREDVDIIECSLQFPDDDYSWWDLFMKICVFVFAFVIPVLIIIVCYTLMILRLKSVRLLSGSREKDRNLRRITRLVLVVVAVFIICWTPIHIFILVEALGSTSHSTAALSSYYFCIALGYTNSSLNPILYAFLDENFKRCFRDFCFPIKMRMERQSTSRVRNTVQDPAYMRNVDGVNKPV

[4] = Metabolic stability in rat brain homogenates assessed as enzymatic degradation by measuring compound remaining at 0.5 mM after 90 mins by RP-HPLC analysis; format: ADME, tissue-based; settings: brain homogenate, read-out: Stability
Mu-type opioid receptor [5] = molecular target: T1, Mu-type opioid receptor (Homo sapiens, UniProt P35372); assay: Agonist activity at human recombinant mu opioid receptor expressed in CHO cells co-expressing C-terminally modified GGalphaqi5 assessed as stimulation of calcium release by Fluo-4 AM dye-based fluorescence assay; format: functional, cell-based
T1 sequence (P35372 whole entry): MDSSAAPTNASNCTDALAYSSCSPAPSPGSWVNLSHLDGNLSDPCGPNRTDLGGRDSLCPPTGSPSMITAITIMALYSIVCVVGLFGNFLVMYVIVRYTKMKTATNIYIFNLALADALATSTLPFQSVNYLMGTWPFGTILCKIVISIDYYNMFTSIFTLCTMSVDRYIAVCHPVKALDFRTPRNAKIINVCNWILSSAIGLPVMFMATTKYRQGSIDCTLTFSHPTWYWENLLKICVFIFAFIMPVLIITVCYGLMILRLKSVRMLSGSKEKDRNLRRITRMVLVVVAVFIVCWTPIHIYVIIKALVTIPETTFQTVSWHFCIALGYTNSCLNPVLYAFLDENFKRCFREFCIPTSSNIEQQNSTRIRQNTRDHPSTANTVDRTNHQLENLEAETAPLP

[6] = molecular target: T2, Delta-type opioid receptor (Homo sapiens, UniProt P41143); assay: Agonist activity at human recombinant delta opioid receptor expressed in CHO cells co-expressing Galphaq66Di5 assessed as stimulation of calcium release up to 1 uM by Fluo-4 AM dye-based fluorescence assay; format: functional, cell-based
T2 sequence (P41143 whole entry): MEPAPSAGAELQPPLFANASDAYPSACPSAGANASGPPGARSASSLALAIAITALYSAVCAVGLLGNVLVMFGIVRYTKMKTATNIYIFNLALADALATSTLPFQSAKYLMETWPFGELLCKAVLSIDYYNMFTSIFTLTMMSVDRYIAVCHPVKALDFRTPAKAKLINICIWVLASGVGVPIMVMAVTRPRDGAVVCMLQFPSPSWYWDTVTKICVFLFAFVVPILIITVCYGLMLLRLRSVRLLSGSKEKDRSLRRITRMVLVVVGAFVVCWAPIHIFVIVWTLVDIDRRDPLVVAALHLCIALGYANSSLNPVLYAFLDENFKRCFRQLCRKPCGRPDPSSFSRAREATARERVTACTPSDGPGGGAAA

[7] = molecular target: T3, Kappa-type opioid receptor (Homo sapiens, UniProt P41145); assay: Agonist activity at human recombinant kappa opioid receptor expressed in CHO cells co-expressing C-terminally modified Galphaqi5 assessed as stimulation of calcium release by Fluo-4 AM dye-based fluorescence assay; format: functional, cell-based
T3 sequence (P41145 whole entry): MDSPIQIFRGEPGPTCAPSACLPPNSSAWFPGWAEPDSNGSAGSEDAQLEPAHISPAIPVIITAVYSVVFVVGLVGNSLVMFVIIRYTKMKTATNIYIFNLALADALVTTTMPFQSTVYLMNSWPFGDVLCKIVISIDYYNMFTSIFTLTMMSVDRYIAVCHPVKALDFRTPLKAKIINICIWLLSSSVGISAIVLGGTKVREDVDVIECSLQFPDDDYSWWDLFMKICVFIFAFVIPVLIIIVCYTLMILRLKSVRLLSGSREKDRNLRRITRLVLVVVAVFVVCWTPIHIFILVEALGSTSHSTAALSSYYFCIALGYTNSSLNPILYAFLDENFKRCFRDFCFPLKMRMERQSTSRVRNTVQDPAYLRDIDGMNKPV

[8] = molecular target: T3, Kappa-type opioid receptor; assay: Intrinsic activity at human recombinant kappa opioid receptor expressed in CHO cells co-expressing C-terminally modified Galphaqi5 assessed as efficacy ratio by measuring stimulation of calcium release by Fluo-4 AM dye-based fluorescence assay relative to dynorphin-A; format: functional, cell-based
Mu-type opioid receptor [9] = molecular target: T1, Mu-type opioid receptor; assay: Agonist activity at human recombinant mu opioid receptor expressed in CHO cells co-expressing C-terminally modified Galphaqi5 assessed as stimulation of calcium release up to 1 uM by Fluo-4 AM dye-based fluorescence assay; format: functional, cell-based
[10] = molecular target: T2, Delta-type opioid receptor; assay: Agonist activity at human recombinant delta opioid receptor expressed in CHO cells co-expressing Galphaq66Di5 assessed as stimulation of calcium release by Fluo-4 AM dye-based fluorescence assay; format: functional, cell-based
[11] = molecular target: T2, Delta-type opioid receptor; assay: Intrinsic activity at human recombinant delta opioid receptor expressed in CHO cells co-expressing Galphaq66Di5 assessed as efficacy ratio by measuring stimulation of calcium release by Fluo-4 AM dye-based fluorescence assay relative to DPDPE; format: functional, cell-based
Mus musculus [12] = assay: Antinociceptive activity in icv dosed CD1 mouse assessed as inhibition of jumping behavior after 10 mins by hot plate assay; format: functional, organism-based
Mus musculus [13] = assay: Antinociceptive activity in CD1 mouse assessed as inhibition of jumping behavior at 0.3 to 10 mg/kg, ip after 15 mins by hot plate assay; format: functional, organism-based
Mus musculus [14] = assay: Antinociceptive activity in CD1 mouse assessed as inhibition of jumping behavior at 100 ng, icv after 10 mins by hot plate assay in presence of mu opioid receptor antagonist beta-FNA; format: functional, organism-based
Mus musculus [15] = assay: Antinociceptive activity in CD1 mouse assessed as inhibition of jumping behavior at 100 ng, icv after 10 mins by hot plate assay in presence of kappa opioid receptor antagonist nor-BNI; format: functional, organism-based
Mus musculus [16] = assay: Antinociceptive activity in CD1 mouse assessed as maximal possible effect by measuring inhibition of jumping behavior at 10 mg/kg, ip after 15 mins by hot plate assay relative to control; format: functional

NC(=O)[C@@H]1CC(=O)NCCCC[C@@H](NC(=O)[C@@H](N)Cc2ccc(O)cc2)C(=O)N[C@@H](Cc2ccc(F)cc2F)C(=O)N[C@@H](Cc2ccccc2)C(=O)N1
IC50 (Mu-type opioid receptor [1]): 0.69 nM | IC50 [2]: > 1000 nM | IC50 [3]: 3.26 nM | remaining at 1.5 h, 500 µM [4]: 93% | EC50 (Mu-type opioid receptor [5]): 4.07 nM | Activity [6]: inactive | EC50 [7]: 7.59 nM | Ratio [8]: 0.78

NC(=O)[C@@H]1CC(=O)NCCCC[C@@H](NC(=O)[C@@H](N)Cc2ccc(O)cc2)C(=O)N[C@@H](Cc2ccc(C(F)(F)F)cc2)C(=O)N[C@@H](Cc2ccccc2)C(=O)N1
IC50 (Mu-type opioid receptor [1]): > 1000 nM | IC50 [2]: > 1000 nM | IC50 [3]: 24.5 nM | remaining at 1.5 h, 500 µM [4]: 97% | Activity (Mu-type opioid receptor [9]): inactive | Activity [6]: inactive | EC50 [7]: 72.4 nM | Ratio [8]: 0.7

NC(=O)[C@@H]1CC(=O)NCCCC[C@@H](NC(=O)[C@@H](N)Cc2ccc(O)cc2)C(=O)N[C@@H](Cc2ccccc2)C(=O)N[C@@H](Cc2ccc(C(F)(F)F)cc2)C(=O)N1
IC50 (Mu-type opioid receptor [1]): 1.6 nM | IC50 [2]: 429 nM | IC50 [3]: 1.5 nM | remaining at 1.5 h, 500 µM [4]: 97% | EC50 (Mu-type opioid receptor [5]): 5.25 nM | EC50 [10]: 162 nM | Ratio [11]: 0.27 | EC50 [7]: 11.7 nM | Ratio [8]: 0.78

NC(=O)[C@H](Cc1ccccc1)NC(=O)[C@H](Cc1ccccc1)NC(=O)[C@@H]1CCCN1C(=O)[C@@H](N)Cc1ccc(O)cc1 [ENDOMORPHIN 2]
remaining at 1.5 h, 500 µM [4]: 0.61%

Cc1cc(O)cc(C)c1C[C@H](N)C(=O)N[C@@H]1CCCCNC(=O)C[C@@H](C(N)=O)NC(=O)[C@H](Cc2ccc(C(F)(F)F)cc2)NC(=O)[C@H](Cc2ccccc2)NC1=O (H-[Dmt][dK]F[Phe(4-CF3)]D-NH2; lactam 2-5)
IC50 (Mu-type opioid receptor [1]): 0.92 nM | IC50 [2]: > 1000 nM | IC50 [3]: 1.15 nM | remaining at 1.5 h, 500 µM [4]: 93% | EC50 (Mu-type opioid receptor [5]): 6.76 nM | Activity [6]: inactive | EC50 [7]: 3.63 nM | Ratio [8]: 0.6

Cc1cc(O)cc(C)c1C[C@H](N)C(=O)N[C@@H]1CCCCNC(=O)C[C@@H](C(N)=O)NC(=O)[C@H](Cc2ccc(F)cc2)NC(=O)[C@H](Cc2ccccc2)NC1=O
IC50 (Mu-type opioid receptor [1]): 0.61 nM | IC50 [2]: 168 nM | IC50 [3]: 0.55 nM | remaining at 1.5 h, 500 µM [4]: 93% | EC50 (Mu-type opioid receptor [5]): 2.75 nM | EC50 [10]: 33.9 nM | Ratio [11]: 0.21 | EC50 [7]: 2.24 nM | Ratio [8]: 0.71 | inhibition (Mus musculus [12]): Dose-dependent effect | inhibition (Mus musculus [13]): Active | inhibition (Mus musculus [14]): inactive | inhibition (Mus musculus [15]): Active

NC(=O)[C@@H]1CC(=O)NCCCC[C@@H](NC(=O)[C@@H](N)Cc2ccc(O)cc2)C(=O)N[C@@H](Cc2ccccc2)C(=O)N[C@@H](Cc2ccc(F)cc2F)C(=O)N1
IC50 (Mu-type opioid receptor [1]): 0.42 nM | IC50 [2]: 110 nM | IC50 [3]: 0.9 nM | remaining at 1.5 h, 500 µM [4]: 94% | EC50 (Mu-type opioid receptor [5]): 6.31 nM | EC50 [10]: 126 nM | Ratio [11]: 0.5 | EC50 [7]: 4.9 nM | Ratio [8]: 0.78

Cc1cc(O)cc(C)c1C[C@H](N)C(=O)N[C@@H]1CCCCNC(=O)C[C@@H](C(N)=O)NC(=O)[C@H](Cc2ccccc2)NC(=O)[C@H](Cc2ccc(F)cc2F)NC1=O
IC50 (Mu-type opioid receptor [1]): 0.54 nM | IC50 [2]: 342 nM | IC50 [3]: 0.6 nM | remaining at 1.5 h, 500 µM [4]: 94% | EC50 (Mu-type opioid receptor [5]): 5.13 nM | EC50 [7]: 2.82 nM | Ratio [8]: 0.65

Cc1cc(O)cc(C)c1C[C@H](N)C(=O)N[C@@H]1CCCCNC(=O)C[C@@H](C(N)=O)NC(=O)[C@H](Cc2ccccc2)NC(=O)[C@H](Cc2ccc(F)cc2)NC1=O
IC50 (Mu-type opioid receptor [1]): 0.55 nM | IC50 [2]: 280 nM | IC50 [3]: 2.4 nM | remaining at 1.5 h, 500 µM [4]: 96% | EC50 (Mu-type opioid receptor [5]): 2.51 nM | Activity [6]: inactive | EC50 [7]: 4.79 nM | Ratio [8]: 0.79

Cc1cc(O)cc(C)c1C[C@H](N)C(=O)N[C@@H]1CCCCNC(=O)C[C@@H](C(N)=O)NC(=O)[C@H](Cc2ccccc2)NC(=O)[C@H](Cc2ccc(C(F)(F)F)cc2)NC1=O
IC50 (Mu-type opioid receptor [1]): > 1000 nM | IC50 [2]: > 1000 nM | IC50 [3]: 6.4 nM | remaining at 1.5 h, 500 µM [4]: 96% | Activity (Mu-type opioid receptor [9]): inactive | EC50 [10]: 9.33 nM | Ratio [11]: 0.28

Cc1cc(O)cc(C)c1C[C@H](N)C(=O)N[C@@H]1CCCCNC(=O)C[C@@H](C(N)=O)NC(=O)[C@H](Cc2ccc(F)cc2F)NC(=O)[C@H](Cc2ccccc2)NC1=O
IC50 (Mu-type opioid receptor [1]): 0.49 nM | IC50 [2]: 11.2 nM | IC50 [3]: 0.3 nM | remaining at 1.5 h, 500 µM [4]: 97% | EC50 (Mu-type opioid receptor [5]): 1.66 nM | EC50 [10]: 8.71 nM | Ratio [11]: 0.37 | EC50 [7]: 1.35 nM | Ratio [8]: 0.82 | inhibition (Mus musculus [12]): Dose-dependent effect | MPE (Mus musculus [16]): 84% | inhibition (Mus musculus [14]): inactive | inhibition (Mus musculus [15]): Active

NC(=O)[C@@H]1CC(=O)NCCCC[C@@H](NC(=O)[C@@H](N)Cc2ccc(O)cc2)C(=O)N[C@@H](Cc2ccc(F)cc2)C(=O)N[C@@H](Cc2ccccc2)C(=O)N1
IC50 (Mu-type opioid receptor [1]): 0.72 nM | IC50 [2]: 348 nM | IC50 [3]: 2.43 nM | remaining at 1.5 h, 500 µM [4]: 96% | EC50 (Mu-type opioid receptor [5]): 2.57 nM | EC50 [10]: 457 nM | Ratio [11]: 0.14 | EC50 [7]: 10 nM | Ratio [8]: 0.89

NC(=O)[C@@H]1CC(=O)NCCCC[C@@H](NC(=O)[C@@H](N)Cc2ccc(O)cc2)C(=O)N[C@@H](Cc2ccccc2)C(=O)N[C@@H](Cc2ccc(F)cc2)C(=O)N1
IC50 (Mu-type opioid receptor [1]): 0.98 nM | IC50 [2]: 286 nM | IC50 [3]: 0.6 nM | remaining at 1.5 h, 500 µM [4]: 93% | EC50 (Mu-type opioid receptor [5]): 3.24 nM | EC50 [10]: 51.3 nM | Ratio [11]: 0.2 | EC50 [7]: 1.05 nM | Ratio [8]: 0.88
